PMC10894229, “Novel antimicrobial peptides against Cutibacterium acnes designed by deep learning” (Scientific Reports, 2024)
Read-outs that look alike come from different tables or passages of the source.

System: C. acnes (BNCC 336649)
Conditions: for Concentration with antimicrobial activity >50%: C. acnes; for Concentration with antimicrobial activity >50% / Category of in vitro test antimicrobial activity against C. acnes: supplementary Table 5; for Antimicrobial activity > 50% against C. acnes: broth microdilution, 48 h, OD 630 nm
Experimental: The strain of C. acnes (BNCC 336649) was cultured in Wilkins-Chalgren Anaerobe Broth (QingDao RiShui Bio-technologies, 11071) at 37 °C under an anaerobic atmosphere performed by a Labiophy HL-B automatic hypoxic workstation (Dalian, Liaoning Province, Labiophy HL-B), inflated with a gas mix of 15% carbon dioxide, 83% nitrogen, and 2% hydrogen.
Logarithmic phase growth bacteria were used for antimicrobial testing.
To determine the MIC values, the broth microdilution method was used. […] Briefly, peptide samples were prepared as a stock solution in water and then diluted. 180 μL of the bacterial suspension (10^7 CFU/mL) and 20 μL of the tested sample were added together into 96-Well Deep Well Plates and incubated 24 h for E. coli and S. aureus or 48 h for C. acnes and C. albicans. For each test, two columns of the plate were kept for sterility control (broth only) and growth control (broth with bacterial inoculums, no antibiotics). The optical density of cultures was measured at 630 nm by a microplate reader (SYNERGY-H1, BioTek, USA) to estimate bacterial growth. All experiments were conducted in triplicate. We used ciprofloxacin (CPFX) as the antibiotic control for antimicrobial testing.

| Sequence | Concentration with antimicrobial activity >50% | Antimicrobial activity > 50% against C. acnes (at 25 µg/mL) | Antimicrobial activity > 50% against C. acnes (at 50 µg/mL) | Antimicrobial activity > 50% against C. acnes (at 100 µg/mL) | Category of in vitro test antimicrobial activity against C. acnes |
| --- | --- | --- | --- | --- | --- |
| KKLAGLAWKALRKAK [AMP-6] | 100 µg/mL | No (A peptide was deemed to have antimicrobial activity if C. acnes growth was inhibited by more than 50% at a given concentration) | No (A peptide was deemed to have antimicrobial activity if C. acnes growth was inhibited by more than 50% at a given concentration) | Inhibit (A peptide was deemed to have antimicrobial activity if C. acnes growth was inhibited by more than 50% at a given concentration) | Weak AMP |
| GFKRIVHRLTKWLA [AMP-11] | 12.5 µg/mL | Inhibit (A peptide was deemed to have antimicrobial activity if C. acnes growth was inhibited by more than 50% at a given concentration) | Inhibit (A peptide was deemed to have antimicrobial activity if C. acnes growth was inhibited by more than 50% at a given concentration) | Inhibit (A peptide was deemed to have antimicrobial activity if C. acnes growth was inhibited by more than 50% at a given concentration) | Strong AMP |
| WFKAIPQAISALKKI [AMP-26] | 100 µg/mL | No (A peptide was deemed to have antimicrobial activity if C. acnes growth was inhibited by more than 50% at a given concentration) | No (A peptide was deemed to have antimicrobial activity if C. acnes growth was inhibited by more than 50% at a given concentration) | Inhibit (A peptide was deemed to have antimicrobial activity if C. acnes growth was inhibited by more than 50% at a given concentration) | Weak AMP |
| GKLKKIWKNFGKIIK [AMP-20] | 25 µg/mL | Inhibit (A peptide was deemed to have antimicrobial activity if C. acnes growth was inhibited by more than 50% at a given concentration) | Inhibit (A peptide was deemed to have antimicrobial activity if C. acnes growth was inhibited by more than 50% at a given concentration) | Inhibit (A peptide was deemed to have antimicrobial activity if C. acnes growth was inhibited by more than 50% at a given concentration) | Medium AMP |
| AKKALKAAAKIIKWL [AMP-19] | 25 µg/mL | Inhibit (A peptide was deemed to have antimicrobial activity if C. acnes growth was inhibited by more than 50% at a given concentration) | Inhibit (A peptide was deemed to have antimicrobial activity if C. acnes growth was inhibited by more than 50% at a given concentration) | Inhibit (A peptide was deemed to have antimicrobial activity if C. acnes growth was inhibited by more than 50% at a given concentration) | Medium AMP |
| FKRLQKLLFTLKQK [AMP-40] | no | No (A peptide was deemed to have antimicrobial activity if C. acnes growth was inhibited by more than 50% at a given concentration) | No (A peptide was deemed to have antimicrobial activity if C. acnes growth was inhibited by more than 50% at a given concentration) | No (A peptide was deemed to have antimicrobial activity if C. acnes growth was inhibited by more than 50% at a given concentration) | No AMP |
| ALIKKLERTLRKAI [AMP-37] | no | No (A peptide was deemed to have antimicrobial activity if C. acnes growth was inhibited by more than 50% at a given concentration) | No (A peptide was deemed to have antimicrobial activity if C. acnes growth was inhibited by more than 50% at a given concentration) | No (A peptide was deemed to have antimicrobial activity if C. acnes growth was inhibited by more than 50% at a given concentration) | No AMP |
| SKILGKLTKAAKIAW [AMP-28] | no | No (A peptide was deemed to have antimicrobial activity if C. acnes growth was inhibited by more than 50% at a given concentration) | No (A peptide was deemed to have antimicrobial activity if C. acnes growth was inhibited by more than 50% at a given concentration) | No (A peptide was deemed to have antimicrobial activity if C. acnes growth was inhibited by more than 50% at a given concentration) | No AMP |
| KLVKRVLKKLRKLF [AMP-8] |  | Inhibit (A peptide was deemed to have antimicrobial activity if C. acnes growth was inhibited by more than 50% at a given concentration) | Inhibit (A peptide was deemed to have antimicrobial activity if C. acnes growth was inhibited by more than 50% at a given concentration) | Inhibit (A peptide was deemed to have antimicrobial activity if C. acnes growth was inhibited by more than 50% at a given concentration) | Strong AMP |
| LLSLIRRTVARLKKA [AMP-18] | 25 µg/mL | Inhibit (A peptide was deemed to have antimicrobial activity if C. acnes growth was inhibited by more than 50% at a given concentration) | Inhibit (A peptide was deemed to have antimicrobial activity if C. acnes growth was inhibited by more than 50% at a given concentration) | Inhibit (A peptide was deemed to have antimicrobial activity if C. acnes growth was inhibited by more than 50% at a given concentration) | Medium AMP |
| WLSKTAKKLWNVFKS [AMP-15] | 25 µg/mL | Inhibit (A peptide was deemed to have antimicrobial activity if C. acnes growth was inhibited by more than 50% at a given concentration) | Inhibit (A peptide was deemed to have antimicrobial activity if C. acnes growth was inhibited by more than 50% at a given concentration) | Inhibit (A peptide was deemed to have antimicrobial activity if C. acnes growth was inhibited by more than 50% at a given concentration) | Medium AMP |
| CKAVLRWVSRLKKL [AMP-39] | 25 µg/mL | Inhibit (A peptide was deemed to have antimicrobial activity if C. acnes growth was inhibited by more than 50% at a given concentration) | Inhibit (A peptide was deemed to have antimicrobial activity if C. acnes growth was inhibited by more than 50% at a given concentration) | Inhibit (A peptide was deemed to have antimicrobial activity if C. acnes growth was inhibited by more than 50% at a given concentration) | Medium AMP |
| KRIGSILGRWLHLAK [AMP-2] | 25 µg/mL | Inhibit (A peptide was deemed to have antimicrobial activity if C. acnes growth was inhibited by more than 50% at a given concentration) | Inhibit (A peptide was deemed to have antimicrobial activity if C. acnes growth was inhibited by more than 50% at a given concentration) | Inhibit (A peptide was deemed to have antimicrobial activity if C. acnes growth was inhibited by more than 50% at a given concentration) | Medium AMP |
| FLKKLRTAVLKLTKG [AMP-17] | 25 µg/mL | Inhibit (A peptide was deemed to have antimicrobial activity if C. acnes growth was inhibited by more than 50% at a given concentration) | Inhibit (A peptide was deemed to have antimicrobial activity if C. acnes growth was inhibited by more than 50% at a given concentration) | Inhibit (A peptide was deemed to have antimicrobial activity if C. acnes growth was inhibited by more than 50% at a given concentration) | Medium AMP |
| GLTLLKKFLHAAKKF [AMP-23] | 25 µg/mL | Inhibit (A peptide was deemed to have antimicrobial activity if C. acnes growth was inhibited by more than 50% at a given concentration) | Inhibit (A peptide was deemed to have antimicrobial activity if C. acnes growth was inhibited by more than 50% at a given concentration) | Inhibit (A peptide was deemed to have antimicrobial activity if C. acnes growth was inhibited by more than 50% at a given concentration) | Medium AMP |
